Each structure is given as a SMILES string.

Data set [1] deals with T1, ATP-binding cassette sub-family C member 2 (Rattus norvegicus, UniProt Q63120). Description: TP_TRANSPORTER: In vivo biliary excretion of SDR rat. The class given is functional, organism-based, Sprague-Dawley, Bile.
For data set [2], the target named is T1, ATP-binding cassette sub-family C member 2. Description: TP_TRANSPORTER: In vivo biliary excretion in vivo, biliary excretion of SDR and EHBR rat. Format: functional, organism-based, Bile.

T1 sequence (Q63120 whole entry): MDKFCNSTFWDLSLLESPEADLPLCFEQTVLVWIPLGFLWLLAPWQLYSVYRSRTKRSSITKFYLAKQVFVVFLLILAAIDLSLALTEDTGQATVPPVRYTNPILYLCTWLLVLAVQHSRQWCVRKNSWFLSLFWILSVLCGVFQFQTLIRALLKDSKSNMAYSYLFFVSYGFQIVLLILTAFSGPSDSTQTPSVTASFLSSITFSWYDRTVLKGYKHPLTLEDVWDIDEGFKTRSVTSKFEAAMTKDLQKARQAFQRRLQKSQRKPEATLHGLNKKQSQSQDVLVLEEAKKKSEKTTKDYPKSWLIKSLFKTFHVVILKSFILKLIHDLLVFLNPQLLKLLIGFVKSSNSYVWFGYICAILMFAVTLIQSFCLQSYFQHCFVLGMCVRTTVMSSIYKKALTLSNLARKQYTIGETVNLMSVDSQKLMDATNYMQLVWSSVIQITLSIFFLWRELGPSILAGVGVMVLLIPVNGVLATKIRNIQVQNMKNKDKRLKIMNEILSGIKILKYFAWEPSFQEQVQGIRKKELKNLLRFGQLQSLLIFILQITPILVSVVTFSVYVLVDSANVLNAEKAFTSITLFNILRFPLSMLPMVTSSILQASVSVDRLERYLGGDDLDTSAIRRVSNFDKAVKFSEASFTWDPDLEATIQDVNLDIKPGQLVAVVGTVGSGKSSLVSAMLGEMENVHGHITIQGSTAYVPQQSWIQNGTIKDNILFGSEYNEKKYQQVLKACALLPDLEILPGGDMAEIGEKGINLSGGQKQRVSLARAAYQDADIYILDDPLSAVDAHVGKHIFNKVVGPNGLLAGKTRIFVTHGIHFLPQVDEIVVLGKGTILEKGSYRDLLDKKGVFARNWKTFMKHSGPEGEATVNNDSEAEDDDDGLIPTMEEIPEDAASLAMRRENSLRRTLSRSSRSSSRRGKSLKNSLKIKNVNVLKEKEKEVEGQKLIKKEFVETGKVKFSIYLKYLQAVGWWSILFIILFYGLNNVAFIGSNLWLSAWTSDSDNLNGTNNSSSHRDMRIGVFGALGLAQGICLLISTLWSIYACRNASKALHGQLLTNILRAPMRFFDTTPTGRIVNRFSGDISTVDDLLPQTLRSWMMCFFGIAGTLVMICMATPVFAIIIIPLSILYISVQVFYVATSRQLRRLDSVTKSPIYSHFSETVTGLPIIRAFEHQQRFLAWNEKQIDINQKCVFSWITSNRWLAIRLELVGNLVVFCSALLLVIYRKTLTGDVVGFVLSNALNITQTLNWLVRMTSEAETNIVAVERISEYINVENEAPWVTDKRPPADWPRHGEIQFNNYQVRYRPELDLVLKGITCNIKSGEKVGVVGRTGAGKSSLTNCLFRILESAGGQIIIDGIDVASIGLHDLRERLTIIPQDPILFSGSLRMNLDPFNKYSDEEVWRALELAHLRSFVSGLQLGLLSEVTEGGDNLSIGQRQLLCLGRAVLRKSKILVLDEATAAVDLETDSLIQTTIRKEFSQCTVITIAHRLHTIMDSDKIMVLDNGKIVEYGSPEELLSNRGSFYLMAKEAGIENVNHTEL

Regarding `CN(Cc1cnc2nc(N)nc(N)c2n1)c1ccc(C(=O)N[C@@H](CCC(=O)O)C(=O)O)cc1` [METHOTREXATE], the Activity entry in data set [1] and in data set [2] was “substrate []” each time.
With `CCCN(CCC)S(=O)(=O)c1ccc(C(=O)O)cc1` [PROBENECID], the Activity entry in data set [1] and in data set [2] was “substrate []” throughout.

For the origin of these results see ChEMBL document CHEMBL2074393, “Impact of Mrp2 on the biliary excretion and intestinal absorption of furosemide, probenecid, and methotrexate using Eisai hyperbilirubinemic rats” (Pharm Res, 2003).
